# In US20160331754A1, “THERAPIES FOR TREATING CANCERS” (GILEAD SCIENCES, INC., priority 2014, published 2016):
# Where “and” joins values, the source holds several entries; their conditions need not be identical. Equal values may be shown once.
# Columns and labels:
# [1] = tested on: WIL2-S; experiment: ADCC LDH release assay, purified NK cells against WIL2-S target cells; format: cell-based, human; conditions: for Percentage of maximum ADCC, obinutuzumab: obinutuzumab 10 μg/mL; for Percentage of maximum ADCC, rituximab: rituximab 10 μg/mL
# [2] = tested on: WIL2-S; experiment: as above; format: cell-based, human; conditions: for Percentage of maximum obinutuzumab-mediated ADCC: Obinutuzumab 10 μg/mL, E:T=10:1, 4 h; for Percentage of maximum ADCC, rituximab: rituximab 10 μg/mL, FcγRIIIa 158F/F
# Excerpt: PI3K isoforms may play a role in immune effector cells and FcγR signaling. The effects of Compound B on the immune effector functions of obinutuzumab and rituximab in lymphoma cell lines were examined. To characterize the antibody-dependent cellular cytotoxicity (ADCC), PBMCs were isolated from healthy individuals with FcγRIIIa genotypes of 158F/F, 158F/V, or 158V/V (Leuko Paks from AllCells, Alameda, Calif.) using Ficoll density gradient centrifugation. NK cells were enriched using a negative-selection immunomagnetic enrichment kit ([…] Technologies, Vancouver, British Columbia, Canada). Enriched NK cells and target cells WIL2-S, S-DHL-4, or Z-138 were separately pre-incubated for 1 hour with or without Compound B (1/2 dilutions from about 1 mM to about 1 nM). In the last 20 minutes of the pre-incubation, target cells were opsonized with or without rituximab or obinutuzumab (at 10 μg/mL, the saturating concentration with maximal ADCC) at indicated effector-target ratios (E:T). Palivizumab was used as an isotype control. NK and target cells were combined and incubated for 4 hours at 37° C. in 5% CO2. To determine ADCC, […] dehydrogenase (LDH) was measured using a cytotoxicity detection kit (Roche Applied Science, Indianapolis, Ind.). In some assays, antigen-independent cellular cytotoxicity (AICC) which represented spontaneous release by NK cell killing of target cells without antibodies were used as control.
# LDH release assays were conducted at 4 hours using WIL2-S line as target and purified NK cells (E:T=10:1). The results (n=9) were normalized as % of maximum ADCC.
# [3] = Compound B 62.5 nM, FcγRIIIa 158F/V
# [4] = Compound B 62.5 nM, FcγRIIIa 158V/V
# [5] = Compound B 125 nM, FcγRIIIa 158F/F
# [6] = Compound B 125 nM, FcγRIIIa 158F/V
# [7] = Compound B 125 nM, FcγRIIIa 158V/V
# [8] = Compound B 250 nM, FcγRIIIa 158F/F
# [9] = Compound B 250 nM, FcγRIIIa 158F/V
# [10] = Compound B 250 nM, FcγRIIIa 158V/V
# [11] = Compound B 500 nM, FcγRIIIa 158F/F
# [12] = Compound B 500 nM, FcγRIIIa 158F/V
# [13] = Compound B 500 nM, FcγRIIIa 158V/V
# [14] = Compound B 1000 nM, FcγRIIIa 158F/F, n=2
# [15] = Compound B 1000 nM, FcγRIIIa 158F/V, n=2
smiles,measurement,setting,value
"CC[C@H](Nc1ncnc2[nH]cnc12)c1nc2cccc(F)c2c(=O)n1-c1ccccc1 [Compound B, (S)-2-(1-((9H-purin-6-yl)amino)propyl)-5-fluoro-3-phenylquinazolin-4(3H)-one]","Percentage of maximum ADCC, obinutuzumab",[1]; [3],112% and 103%
same,"Percentage of maximum ADCC, obinutuzumab",[1]; [4],98% and 78%
same,"Percentage of maximum ADCC, rituximab","[1]; Compound B 62.5 nM, FcγRIIIa 158F/F",88% and 108%
same,"Percentage of maximum ADCC, rituximab",[1]; [3],101% and 107%
same,"Percentage of maximum ADCC, rituximab",[1]; [4],96% and 99%
same,"Percentage of maximum ADCC, obinutuzumab",[1]; [5],87% and 110%
same,"Percentage of maximum ADCC, obinutuzumab",[1]; [6],111% and 105%
same,"Percentage of maximum ADCC, obinutuzumab",[1]; [7],94% and 84%
same,"Percentage of maximum ADCC, rituximab",[1]; [5],87% and 108%
same,"Percentage of maximum ADCC, rituximab",[1]; [6],105% and 102%
same,"Percentage of maximum ADCC, rituximab",[1]; [7],95% and 98%
same,"Percentage of maximum ADCC, obinutuzumab",[1]; [8],91% and 109%
same,"Percentage of maximum ADCC, obinutuzumab",[1]; [9],106% and 102%
same,"Percentage of maximum ADCC, obinutuzumab",[1]; [10],99% and 89%
same,"Percentage of maximum ADCC, rituximab",[1]; [8],87% and 109%
same,"Percentage of maximum ADCC, rituximab",[1]; [9],98% and 101%
same,"Percentage of maximum ADCC, rituximab",[1]; [10],95% and 94%
same,"Percentage of maximum ADCC, obinutuzumab",[1]; [11],83% and 104%
same,"Percentage of maximum ADCC, obinutuzumab",[1]; [12],106% and 94%
same,"Percentage of maximum ADCC, obinutuzumab",[1]; [13],92% and 79%
same,"Percentage of maximum ADCC, rituximab",[1]; [11],84% and 105%
same,"Percentage of maximum ADCC, rituximab",[1]; [12],95% and 99%
same,"Percentage of maximum ADCC, rituximab",[1]; [13],91% and 96%
same,"Percentage of maximum ADCC, obinutuzumab",[1]; [14],79% and 103%
same,"Percentage of maximum ADCC, obinutuzumab",[1]; [15],105% and 93%
same,"Percentage of maximum ADCC, rituximab",[1]; [14],80% and 100%
same,"Percentage of maximum ADCC, rituximab",[1]; [15],95% and 88%
same,"Percentage of maximum ADCC, rituximab","[1]; Compound B 1000 nM, FcγRIIIa 158V/V, n=2",87% and 84%
same,effect on obinutuzumab-mediated ADCC,"[1]; WIL2-S, E:T=10:1, 4 h, n=9",did not affect
same,effect on NK-mediated ADCC,"[1]; varying E:T ratios, antibody 10 μg/mL, n=3",did not affect
same,Percentage of maximum obinutuzumab-mediated ADCC,[2]; Compound B 0.98 nM,99% and 91% and 109% and 94% and 96% and 103% and 104% and 101%
same,Percentage of maximum obinutuzumab-mediated ADCC,[2]; Compound B 1.95 nM,100% and 89% and 125% and 104% and 106% and 112% and 107%
same,Percentage of maximum obinutuzumab-mediated ADCC,[2]; Compound B 3.91 nM,91% and 84% and 102% and 113% and 105% and 108% and 110% and 103%
same,Percentage of maximum obinutuzumab-mediated ADCC,[2]; Compound B 7.81 nM,90% and 89% and 98% and 113% and 105% and 109% and 107% and 94%
same,"Percentage of maximum ADCC, rituximab",[2]; Compound B 15.63 nM,92% and 108%
same,Percentage of maximum obinutuzumab-mediated ADCC,[2]; Compound B 31.25 nM,82% and 85% and 102% and 107% and 96% and 95%
same,"Percentage of maximum ADCC, rituximab",[2]; Compound B 31.25 nM,86% and 109%
same,Percentage of maximum obinutuzumab-mediated ADCC,[2]; Compound B 62.5 nM,78% and 88% and 103% and 95% and 108% and 112% and 98%
same,Percentage of maximum obinutuzumab-mediated ADCC,[2]; Compound B 125 nM,84% and 87% and 104% and 97% and 111% and 110% and 105% and 94%
same,Percentage of maximum obinutuzumab-mediated ADCC,[2]; Compound B 250 nM,89% and 91% and 99% and 97% and 95% and 106% and 109% and 102%
same,Percentage of maximum obinutuzumab-mediated ADCC,[2]; Compound B 500 nM,79% and 83% and 94% and 92% and 96% and 106% and 104%
same,"Percentage of maximum ADCC, obinutuzumab","[2]; Compound B 1000 nM, obinutuzumab 10 μg/mL, FcγRIIIa 158V/V, n=2",83% and 82%
same,inhibition at […],"[2]; Homo sapiens, 250 nM, FcγRIIIa 158V/V genotype, read-out: inhibition of obinutuzumab-mediated ADCC",< 10%
same,effect on obinutuzumab-mediated ADCC in FcγRIIIa 158F/F or 158F/V genotypes,"[2]; n=2 per genotype, antibody 10 μg/mL",did not affect
